In article PMC10920327, “Prediction of anticancer peptides derived from the true lectins of Phoenix dactylifera and their synergetic effect with mitotane” (Frontiers in Pharmacology, 2024):
Where two headings read alike, the source gives them in different places. No end group written: not given here.

Tests used:
MCF-7 [1] = settings: 48 h, MTT; for % of cell viability of MCF-7, mitotane alone: mitotane 25 µg/mL alone
Procedure: (§1) Selected human cell lines were cultured in DMEM media with 10% fetal bovine serum (FBS) at 37°C in a CO2 incubator. After 70%–90% confluence, 5 mL of 0.25% trypsin is injected to separate the cells. The cells were counted using trypan blue, and the cell concentration was set at 10^5/mL. A 96-well plate was filled with 100 mL in each well, and the plate was then incubated for 24 h.
(§2) In this study the media in each well was replaced to contain media containing peptides in varying concentrations (U1, U2, U3, U4, U5, U6, U7, U8, and U9). […] Mitotane concentrations ranged from 20 to 600 µM. U3 and U7 were combined with mitotane using two different preparation techniques. Various concentrations of U3 or U7 (40–1500 µM) and mitotane (20–600 µM) were serially diluted. serial dilution of mitotane concentration with 500 µg/mL of U3 or U7 at a fixed concentration Each concentration was repeated four times.

MCF-7 [2] = test: cells; settings: Homo sapiens, MCF7, read-out: IC50 value against MCF-7, single agent
Procedure: as §1, §2

HepG2 [3] = settings: for % of cell viability of HepG2, mitotane alone: mitotane 25 µg/mL (80 µM) alone, MTT, 80 µM; for % of cell viability of HepG2, mitotane alone / IC50: 48 h
Procedure: as §1, §2

HepG2 [4] = test: cells; settings: Homo sapiens, HepG2, read-out: IC50 value against HepG2, single agent
Procedure: as §1, §2

T47D = test: MTT cell viability assay, T47D; assay type: cell-based, human; settings: Table 3, 48 h, peptide alone
Procedure: MCF-7, T47D (breast cancer), and HepG2 (liver cancer) were donated by the Tissue Culture Unit, Department of Biochemistry, Faculty of Science, King Abdulaziz University. Selected human cell lines were cultured in DMEM media with 10% fetal bovine serum (FBS) at 37°C in a CO2 incubator. After 70%–90% confluence, 5 mL of 0.25% trypsin is injected to separate the cells. The cells were counted using trypan blue, and the cell concentration was set at 10^5/mL. A 96-well plate was filled with […] in each well, and the plate was then incubated for 24 h.
Mitotane, marketed as Lysodren, functions as a steroidogenesis inhibitor and cytostatic antineoplastic drug. It is employed for treating adrenocortical carcinoma and Cushing’s syndrome ([Lo Iacono et al., 2021]). In this study the media in each well was replaced to contain media containing peptides in varying concentrations (U1, U2, U3, U4, U5, U6, U7, U8, and U9). U3 and U7, which have the lowest IC50 values, were chosen to be combined with mitotane. Mitotane concentrations ranged from 20 to 600 µM. U3 and U7 were combined with mitotane using two different preparation techniques. Various concentrations of U3 or U7 (40–1500 µM) and mitotane (20–600 µM) were serially diluted. serial dilution of mitotane concentration with 500 µg/mL of U3 or U7 at a fixed concentration Each concentration was repeated four times.
After 48 h of incubation at 37°C, 100 µL of the 0.5 mg/mL MTT was changed with media containing the medication. At 37°C in the dark, the 96-well plate was incubated for 4 h. After removing the MTT and replacing it with 100 µL of DMSO, the plate was allowed to rest for 15 min. The absorbance of each well in 96 well plate was read at wave length 595 nm by ELISA reader (Bio-RAD microplate reader, Japan).
The treated cells viability and IC50 were expressed as the mean ± standard deviation (SD). The percentage viability was calculated by multiplying the absorbance of treated cells by 100 and dividing the absorbance of untreated cells. The software GraphPad Prism (version 9.0, San Diego, CA, United States) was conducted to calculate the IC50 of peptides, mitotane and their combination.

[5] = read-out: IC50 range against MCF-7, Table 3, peptide alone, range from GraphPad fit
[6] = read-out: IC50 value against MCF-7, Table 3, peptide alone, mean ± SD, n = 3
[7] = mean ± SD, n = 3, read-out: IC50 value against T47D
[8] = range from GraphPad fit, read-out: IC50 range against T47D
[9] = read-out: IC50 value against MCF-7, single agent, Table 4/Figure 2, U3, U7 40–1500 µM or mitotane alone, mean ± SD, n = 3

| Compound | % of cell viability of MCF-7, mitotane alone (MCF-7 [1]) [%] | % of cell viability of MCF-7, mitotane alone (MCF-7 [1]; listed as mitotane) [%] | IC50 (MCF-7 [2]) [µM] | % of cell viability of HepG2, mitotane alone (HepG2 [3]) [%] | % of cell viability of HepG2, mitotane alone (HepG2 [3]; listed as mitotane) [%] | HepG2 IC50 fold lower than MCF-7 (HepG2 [3]; mitotane alone, HepG2 versus MCF-7) [fold] | IC50 (HepG2 [4]) [µM] | IC50 (MCF-7 [1]; [5]) [µM] | IC50 (MCF-7 [1]; [6]) [µM] | IC50 (T47D; [7]) [µM] | IC50 (T47D; [8]) [µM] | IC50 (MCF-7 [1]; [9]) [µM] | IC50 (HepG2 [3]) [µM] |
| --- | --- | --- | --- | --- | --- | --- | --- | --- | --- | --- | --- | --- | --- |
| Clc1ccc(C(c2ccccc2Cl)C(Cl)Cl)cc1 (centres unmarked) [Mitotane] | 59 | 59.05 ± 1.83 | 76.3 ± 5.04 | 41 | 41.86 ± 4.54 | 2 | 40.1 ± 4.69 |  |  |  |  |  |  |
| AVGSASPTL [Peptide U6] |  |  |  |  |  |  |  | 1360 to 2080 | 1680 ± 74.3 | 5900 ± 119 | 2520 to 13800 |  |  |
| DEEENTHISTR [Peptide U5] |  |  |  |  |  |  |  | 549 to 1090 | 773 ± 44.5 | 1260 ± 62.5 | 866 to 1830 |  |  |
| HDNTAHPAPDS [Peptide U9] |  |  |  |  |  |  |  | 351 to 496 | 418 ± 15.7 | 5460 ± 99.3 | 2620 to 11400 |  |  |
| NCSIHGDIPAY [Peptide U7] |  |  |  |  |  |  |  | 266 to 458 | 349 ± 25.3 | 584 ± 30 | 485 to 703 | 554 ± 44.4 | 524 ± 35.8 |
| NEEENTHISTR [Peptide U4] |  |  |  |  |  |  |  | 261 to 338 | 297 ± 19.7 | 872 ± 23.4 | 723 to 1050 |  |  |
| NGSIPATWASL [Peptide U3] |  |  |  |  |  |  |  | 373 to 617 | 480 ± 55 | 518 ± 34.9 | 435 to 616 | 556 ± 43.5 | 561 ± 39.3 |
| NQADSSPSS [Peptide U2] |  |  |  |  |  |  |  | 451 to 1030 | 682 ± 32 | 1510 ± 78 | 1140 to 1990 |  |  |
| SSQGYGSSPSPTPR [Peptide U1] |  |  |  |  |  |  |  | 1010 to 2260 | 1510 ± 71.7 | 599 ± 20.4 | 458 to 784 |  |  |
| TFPCSASNK [Peptide U8] |  |  |  |  |  |  |  | 518 to 792 | 641 ± 43.8 | 4710 ± 83.6 | 1990 to 11100 |  |  |
